In brackets after ≈: the same amount, converted by molar mass. Read-outs that look alike come from different tables or passages of the source. Non-standard residues stand in square brackets, D forms with d. Residues, ends and D or L forms follow the SMILES beside them. *: point of attachment. Palmitoyl = CCCCCCCCCCCCCCCC(=O)*; Aib = CC(C)(N)C(=O)O

Data on eight compounds can be found in patent publication US20240058422A1, “GLUCAGON-LIKE PEPTIDE-1 RECEPTOR ANTAGONISTS” (INDIANA UNIVERSITY RESEARCH AND TECHNOLOGY CORPORATION, priority 2022, published 2024).

Series [1] can be described thus: physchem. The following applies: pH 7.7, Solubility 80 mM AmeBicarb pH7.7.
The target in series [2] is GLP-1R (Homo sapiens, UniProt P43220). The experiment in a line: GLP-1 receptor-mediated cAMP induction, luciferase reporter gene antagonism assay. The following applies: antagonism of 0.05 nM GLP-1, HEK 293 cells. Further details: host or cells: HEK 293. The class given is cell-based. In a few lines: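 HEK 293 cells cotransfected with human GLP-1 receptor and CRE-luciferase were serum-deprived 16 h, then given serial peptide dilutions followed by 0.05 nM GLP-1 and incubated 5 h at 37° C.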
(A reporter such as luciferase makes a cellular process visible.)

Series [3] can be described thus: Solubility in buffer.
Setting [4] is: Table 3, amino acid substitution variants of Jant4-K40, read-out: Bioactivity IC50.
Setting [5] is: 80 mM ammonium bicarbonate buffer, pH 7.7.
[6] abbreviates: Table 5, d-AA variants of 9-40am Jant4 K40[C16], read-out: Bioactivity KC50.

Chain of GLP-1R (P43220 24-463): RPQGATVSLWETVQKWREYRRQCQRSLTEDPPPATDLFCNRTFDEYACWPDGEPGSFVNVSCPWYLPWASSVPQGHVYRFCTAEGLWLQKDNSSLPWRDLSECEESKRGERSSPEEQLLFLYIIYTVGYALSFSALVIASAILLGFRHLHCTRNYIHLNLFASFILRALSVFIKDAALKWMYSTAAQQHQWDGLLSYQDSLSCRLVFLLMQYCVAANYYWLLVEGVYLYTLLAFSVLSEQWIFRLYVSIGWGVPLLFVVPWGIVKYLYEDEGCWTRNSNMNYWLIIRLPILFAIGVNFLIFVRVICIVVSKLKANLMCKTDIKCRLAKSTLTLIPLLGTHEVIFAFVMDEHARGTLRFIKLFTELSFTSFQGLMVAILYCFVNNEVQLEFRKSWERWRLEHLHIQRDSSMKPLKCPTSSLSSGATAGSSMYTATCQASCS

For the compound `CCCCCCCCCCCCCCCC(=O)NCCCC[C@H](NC(=O)[C@H](CO)NC(=O)[C@@H]1CCCN1C(=O)[C@@H]1CCCN1C(=O)[C@@H]1CCCN1C(=O)[C@H](C)NC(=O)CNC(=O)[C@H](CO)NC(=O)[C@H](CO)NC(=O)[C@@H]1CCCN1C(=O)CNC(=O)CNC(=O)[C@H](CCCNC(=N)N)NC(=O)[C@@H](NC(=O)[C@H](CC(C)C)NC(=O)[C@H](Cc1c[nH]c2ccccc12)NC(=O)[C@H](CCC(=O)O)NC(=O)[C@@H](NC(=O)[C@H](Cc1ccccc1)NC(=O)[C@H](CCC(=O)O)NC(=O)[C@H](CCCNC(=N)N)NC(=O)[C@@H](NC(=O)[C@H](C)NC(=O)[C@H](CCC(N)=O)NC(=O)[C@H](CCC(=O)O)NC(=O)[C@H](CCC(=O)O)NC(=O)[C@H](CC(C)C)NC(=O)[C@H](Cc1ccc(O)cc1)NC(=O)[C@H](CO)NC(=O)[C@H](CO)NC(=O)[C@@H](NC(=O)[C@@H](N)CC(=O)O)C(C)C)C(C)C)[C@@H](C)CC)C(C)C)C(N)=O` [compound 70] (H-DVSSYLEEQAVREFIEWLVRGGPSSGAPPPSK(Palmitoyl)-NH2), the solubility (in general, the dissolved amount per volume that the medium holds) in series [1] was > 20 mg/mL.

Turning to `CCCCCCCCCCCCCCCC(=O)NCCCC[C@H](NC(=O)[C@H](CO)NC(=O)[C@@H]1CCCN1C(=O)[C@@H]1CCCN1C(=O)[C@@H]1CCCN1C(=O)[C@H](C)NC(=O)CNC(=O)[C@H](CO)NC(=O)[C@H](CO)NC(=O)[C@@H]1CCCN1C(=O)CNC(=O)CNC(=O)[C@H](CCCNC(=N)N)NC(=O)[C@@H](NC(=O)[C@H](CC(C)C)NC(=O)[C@H](Cc1c[nH]c2ccccc12)NC(=O)[C@H](CCC(=O)O)NC(=O)[C@@H](NC(=O)[C@H](Cc1ccccc1)NC(=O)[C@H](CCC(=O)O)NC(=O)[C@H](CCCNC(=N)N)NC(=O)[C@@H](NC(=O)[C@H](C)NC(=O)[C@H](CCC(=O)O)NC(=O)[C@H](CCC(=O)O)NC(=O)[C@H](CCC(=O)O)NC(=O)[C@H](CC(C)C)NC(=O)[C@H](Cc1ccc(O)cc1)NC(=O)[C@H](CO)NC(=O)[C@H](CO)NC(=O)[C@@H](NC(=O)[C@@H](N)CC(=O)O)C(C)C)C(C)C)[C@@H](C)CC)C(C)C)C(N)=O` [compound 72] (H-DVSSYLEEEAVREFIEWLVRGGPSSGAPPPSK(Palmitoyl)-NH2; N-terminus assumed), the IC50 in series [2] (setting [4]) was 0.019 µM. The solubility in series [3] (setting [5]) is > 20 mg/mL.

In the case of `CCCCCCCCCCCCCCCC(=O)NCCCC[C@H](NC(=O)[C@H](CO)NC(=O)[C@@H]1CCCN1C(=O)[C@@H]1CCCN1C(=O)[C@@H]1CCCN1C(=O)[C@H](C)NC(=O)CNC(=O)[C@H](CO)NC(=O)[C@H](CO)NC(=O)[C@@H]1CCCN1C(=O)CNC(=O)CNC(=O)[C@H](CCCNC(=N)N)NC(=O)[C@@H](NC(=O)[C@H](CC(C)C)NC(=O)[C@H](Cc1c[nH]c2ccccc12)NC(=O)[C@H](CCC(=O)O)NC(=O)[C@@H](NC(=O)[C@H](Cc1ccccc1)NC(=O)[C@H](CCC(=O)O)NC(=O)[C@H](CCCNC(=N)N)NC(=O)[C@@H](NC(=O)[C@H](C)NC(=O)[C@H](CCC(=O)O)NC(=O)[C@H](CCC(=O)O)NC(=O)[C@H](CCC(=O)O)NC(=O)[C@H](CC(C)C)NC(=O)[C@H](Cc1ccc(O)cc1)NC(=O)[C@H](CCCNC(=N)N)NC(=O)[C@H](CO)NC(=O)[C@@H](NC(=O)[C@@H](N)CC(=O)O)C(C)C)C(C)C)[C@@H](C)CC)C(C)C)C(N)=O` [compound 75] (H-DVSRYLEEEAVREFIEWLVRGGPSSGAPPPSK(Palmitoyl)-NH2; N-terminus assumed), in series [2] (setting [4]), the IC50 turned out to be 0.019 µM. In series [3] (setting [5]), this compound returned a solubility of 18.6 mg/mL (≈ 4900 µM).

`CCCCCCCCCCCCCCCC(=O)NCCCC[C@H](NC(=O)[C@H](CO)NC(=O)[C@@H]1CCCN1C(=O)[C@@H]1CCCN1C(=O)[C@@H]1CCCN1C(=O)[C@H](C)NC(=O)CNC(=O)[C@H](CO)NC(=O)[C@H](CO)NC(=O)[C@@H]1CCCN1C(=O)CNC(=O)CNC(=O)[C@H](CCCCN)NC(=O)[C@@H](NC(=O)[C@H](CC(C)C)NC(=O)[C@H](Cc1c[nH]c2ccccc12)NC(=O)[C@H](C)NC(=O)[C@@H](NC(=O)[C@H](Cc1ccccc1)NC(=O)[C@H](CCC(=O)O)NC(=O)[C@H](CCCNC(=N)N)NC(=O)[C@@H](NC(=O)[C@H](C)NC(=O)[C@H](CCC(N)=O)NC(=O)C(C)(C)NC(=O)[C@H](CCC(=O)O)NC(=O)[C@H](CC(C)C)NC(=O)[C@H](Cc1ccc(O)cc1)NC(=O)[C@H](CO)NC(=O)[C@H](CO)NC(=O)[C@@H](NC(=O)[C@@H](N)CC(=O)O)C(C)C)C(C)C)[C@@H](C)CC)C(C)C)C(N)=O` [compound 84] (H-DVSSYLE[Aib]QAVREFIAWLVKGGPSSGAPPPSK(Palmitoyl)-NH2): the IC50 in series [2] (Table 4, Aib variants of 9-40am Jant4 K40[C16], read-out: Bioactivity IC50) was 0.03 µM. Further, the solubility in series [3] (setting [5]) was 5.2 mg/mL (≈ 1450 µM); in series [3] (PBS, pH 7.7, Solubility [mg/mL] PBS pH7.7, Table 4, PBS pH7.7), 0.2 mg/mL (≈ 55.6 µM).

In the case of `CCCCCCCCCCCCCCCC(=O)NCCCC[C@H](NC(=O)[C@H](CO)NC(=O)[C@@H]1CCCN1C(=O)[C@@H]1CCCN1C(=O)[C@@H]1CCCN1C(=O)[C@H](C)NC(=O)CNC(=O)[C@H](CO)NC(=O)[C@H](CO)NC(=O)[C@@H]1CCCN1C(=O)CNC(=O)CNC(=O)[C@H](CCCCN)NC(=O)[C@@H](NC(=O)[C@H](CC(C)C)NC(=O)[C@H](Cc1c[nH]c2ccccc12)NC(=O)[C@H](C)NC(=O)[C@@H](NC(=O)[C@H](Cc1ccccc1)NC(=O)[C@H](CCC(=O)O)NC(=O)[C@H](CCCNC(=N)N)NC(=O)[C@@H](NC(=O)[C@H](C)NC(=O)[C@H](CCC(N)=O)NC(=O)[C@@H](CCC(=O)O)NC(=O)[C@H](CCC(=O)O)NC(=O)[C@H](CC(C)C)NC(=O)[C@H](Cc1ccc(O)cc1)NC(=O)[C@H](CO)NC(=O)[C@H](CO)NC(=O)[C@@H](NC(=O)[C@@H](N)CC(=O)O)C(C)C)C(C)C)[C@@H](C)CC)C(C)C)C(N)=O` [compound 85] (H-DVSSYLE[dE]QAVREFIAWLVKGGPSSGAPPPSK(Palmitoyl)-NH2; N-terminus assumed), the IC50 in series [2] (setting [6]) is 0.041 µM. Moreover, the solubility in series [3] (setting [5]) is 10.7 mg/mL (≈ 2940 µM).

On to `CCCCCCCCCCCCCCCC(=O)NCCCC[C@H](NC(=O)[C@H](CO)NC(=O)[C@@H]1CCCN1C(=O)[C@@H]1CCCN1C(=O)[C@@H]1CCCN1C(=O)[C@H](C)NC(=O)CNC(=O)[C@H](CO)NC(=O)[C@H](CO)NC(=O)[C@@H]1CCCN1C(=O)CNC(=O)CNC(=O)[C@H](CCCCN)NC(=O)[C@@H](NC(=O)[C@H](CC(C)C)NC(=O)[C@H](Cc1c[nH]c2ccccc12)NC(=O)[C@H](C)NC(=O)[C@@H](NC(=O)[C@H](Cc1ccccc1)NC(=O)[C@H](CCC(=O)O)NC(=O)[C@H](CCCNC(=N)N)NC(=O)[C@@H](NC(=O)[C@H](C)NC(=O)[C@@H](CCC(N)=O)NC(=O)[C@H](CCC(=O)O)NC(=O)[C@H](CCC(=O)O)NC(=O)[C@H](CC(C)C)NC(=O)[C@H](Cc1ccc(O)cc1)NC(=O)[C@H](CO)NC(=O)[C@H](CO)NC(=O)[C@@H](NC(=O)[C@@H](N)CC(=O)O)C(C)C)C(C)C)[C@@H](C)CC)C(C)C)C(N)=O` [compound 86] (H-DVSSYLEE[dQ]AVREFIAWLVKGGPSSGAPPPSK(Palmitoyl)-NH2), for which, in series [2] (setting [6]), the IC50 worked out at 0.041 µM. The solubility in series [3] (setting [5]) worked out at 2.2 mg/mL (≈ 604 µM).

Take `CCCCCCCCCCCCCCCC(=O)NCCCC[C@H](NC(=O)[C@H](CO)NC(=O)[C@@H]1CCCN1C(=O)[C@@H]1CCCN1C(=O)[C@@H]1CCCN1C(=O)[C@H](C)NC(=O)CNC(=O)[C@H](CO)NC(=O)[C@H](CO)NC(=O)[C@@H]1CCCN1C(=O)CNC(=O)CNC(=O)[C@H](CCCCN)NC(=O)[C@@H](NC(=O)[C@H](CC(C)C)NC(=O)[C@H](Cc1c[nH]c2ccccc12)NC(=O)[C@H](C)NC(=O)[C@@H](NC(=O)[C@H](Cc1ccccc1)NC(=O)[C@H](CCC(=O)O)NC(=O)[C@@H](CCCNC(=N)N)NC(=O)[C@@H](NC(=O)[C@H](C)NC(=O)[C@H](CCC(N)=O)NC(=O)[C@H](CCC(=O)O)NC(=O)[C@H](CCC(=O)O)NC(=O)[C@H](CC(C)C)NC(=O)[C@H](Cc1ccc(O)cc1)NC(=O)[C@H](CO)NC(=O)[C@H](CO)NC(=O)[C@@H](NC(=O)[C@@H](N)CC(=O)O)C(C)C)C(C)C)[C@@H](C)CC)C(C)C)C(N)=O` [compound 87] (H-DVSSYLEEQAV[dR]EFIAWLVKGGPSSGAPPPSK(Palmitoyl)-NH2; N-terminus assumed): the IC50 in series [2] (setting [6]) was determined as 0.016 µM. Also, the solubility in series [3] (setting [5]) stood at 0.8 mg/mL (≈ 220 µM).

In the case of `CCCCCCCCCCCCCCCC(=O)NCCCC[C@H](NC(=O)[C@H](CO)NC(=O)[C@@H]1CCCN1C(=O)[C@@H]1CCCN1C(=O)[C@@H]1CCCN1C(=O)[C@H](C)NC(=O)CNC(=O)[C@H](CO)NC(=O)[C@H](CO)NC(=O)[C@@H]1CCCN1C(=O)CNC(=O)CNC(=O)[C@H](CCCCN)NC(=O)[C@@H](NC(=O)[C@H](CC(C)C)NC(=O)[C@H](Cc1c[nH]c2ccccc12)NC(=O)[C@H](C)NC(=O)[C@@H](NC(=O)[C@H](Cc1ccccc1)NC(=O)[C@@H](CCC(=O)O)NC(=O)[C@H](CCCNC(=N)N)NC(=O)[C@@H](NC(=O)[C@H](C)NC(=O)[C@H](CCC(N)=O)NC(=O)[C@H](CCC(=O)O)NC(=O)[C@H](CCC(=O)O)NC(=O)[C@H](CC(C)C)NC(=O)[C@H](Cc1ccc(O)cc1)NC(=O)[C@H](CO)NC(=O)[C@H](CO)NC(=O)[C@@H](NC(=O)[C@@H](N)CC(=O)O)C(C)C)C(C)C)[C@@H](C)CC)C(C)C)C(N)=O` [compound 88] (H-DVSSYLEEQAVR[dE]FIAWLVKGGPSSGAPPPSK(Palmitoyl)-NH2), the IC50 in series [2] (setting [6]) was 0.027 µM. In addition, the solubility in series [3] (setting [5]) was 1.7 mg/mL (≈ 467 µM).
